How the values were obtained:
mice (male and female) = experiment: Single dose (acute) toxicity study in mice; type: in vivo
Procedure: The single-dose (acute) toxicity study was carried out with different groups of rats and mice (male and female) and according to the procedures recommended by OECD (2001) and ANVISA (2013).
After a 6 h-fasting period, the animals' body weight was determined, and the dose of the synthetic CBD was calculated. Two single doses (1000 and 2000 mg/kg) of synthetic CBD were administered orally (with the aid of a gavage probe) and intraperitoneally in different groups of rats and mice (male and female). Other different groups of rodents were treated with placebo and were considered as control groups.
The animals were carefully observed for any toxicity signs within the first eight hours after treatment, and daily for a period of 14 days. On the 15th day all animals were euthanized, and the respective anatomopathological investigations were performed on the 15th day after the treatments.

[1] = system: Salmonella typhimurium TA98; experiment: AMES test, strain TA98; type: cell-based; settings: TA98, with (+S9) and without (-S9) metabolic activation, 62.5-375 μg/plate
Source text: (§1) For the AMES test, the TA 100 and TA 98 strains of Salmonella typhimurium were used. The strain TA 100, which detects mutagens causing base pair replacement in DNA, contains a mutation in the hisG gene (hisG46), which codes for the first histidine biosynthesis enzyme, with the CG pair as the preferred point for reversion. The strain TA 98 has a mutation in the hisD gene to reverse eight repetitive GC residues and detects mutagenic compounds causing the DNA reading frame to shift. According to the methodology of direct incorporation in plates, developed by Maron and Ames (1983), different concentrations of CBD-SINT (375, 250, 125 and 62.5 μg/plate) were mixed with 0.1 mL of the bacteria culture and 2 mL of surface agar (top agar), supplemented with traces of histidine and biotin. For the tests with metabolic activation, 0.5 mL homogenized microsomal fraction S9 of rat liver (post-mitochondrial fraction, supplemented with a cofactor, prepared from the liver of rodents treated with an enzymatic inducing agent, arochloror 1254) (MOLTOX—Molecular Toxicology, USA) were added. As a negative control, double-distilled water (vehicle) was used. As a positive control for TA98, 4-nirophenylenediamine (NPD) dissolved in DMSO was used at a concentration of 10 μg/plate. […] After this period, the number of reversing colonies per plate was counted. […]

[2] = system: Salmonella typhimurium TA100; experiment: AMES test, strain TA100; type: cell-based; settings: TA100, with (+S9) and without (-S9) metabolic activation, 62.5-375 μg/plate
Source text: as §1

[3] = system: rats with MPTP microinfusion into the substantia nigra; experiment: Morris water maze (cued test/memory version), MPTP model; type: in vivo; settings: 36 and 120 mg/kg orally, day 1 to day 10 after MPTP
Procedure: For the experiments with MPTP (neuroprotection), the animals were divided into the following experimental groups: • MPTP+placebo • MPTP+CBD-SINT 12 mg/kg • MPTP+CBD-SINT 36 mg/kg • MPTP+CBD-SINT 120 mg/kg • Sham+placebo • Naive
CBD-SINT and placebo were administered orally (gavage) for 18 days prior to the administration of the neurotoxin by stereotactic surgery, and for another 10 days after surgery. After the administration of the neurotoxin, the behavioral (locomotor activity) and biochemical (brain dopamine dosage) parameters were evaluated after 24 hours and after 10 days. The memory tests (Morris water maze) were performed daily from day 1 to day 10 after the administration of the neurotoxin (FIG. 13).
The rats were submitted to stereotactic surgery (stereotactic—David Kopf, model 957L) and received bilateral microinfusion of MPTP or 6-OHDA (different groups of rats) directly into the substantia nigra. For surgery, the following stereotaxic coordinates were used: anteroposterior: 5.0 mm from the bregma; mediolateral: ±2.1 mm from the midline and dorsoventral: −7.7 mm from the cranial vault (Paxinos and Watson, 1986). Then, 100 μg MPTP (diluted in 1 μL saline, with a flow of 0.33 μL/min) or 8 μg 6-OHDA (diluted in 2 μL saline with 0.2 μg/μL ascorbic acid, with a flow rate of 0.33 μL/min) were injected. […]

[4] = 1000 mg/kg and 2000 mg/kg intraperitoneally, single dose

C=C(C)[C@@H]1CCC(C)=C[C@H]1c1c(O)cc(CCCCC)cc1O [CBD-SINT, Cannabidiol]
abdominal contortions during the first 8 hours (mice (male and female); [4]): occasional abdominal contortions
activity during the first 8 hours of observation (mice (male and female); [4]): significant decrease in its activity
daily feed and water consumption compared to placebo (mice (male and female); 1000 and 2000 mg/kg, oral or intraperitoneal): no change
final body weight and body weight gains vs placebo (mice (male and female); 1000 and 2000 mg/kg, oral or intraperitoneal, 14 days): similar
appearance and general behavior pattern until the end of the 14-days observation (mice (male and female); 1000 and 2000 mg/kg, oral or intraperitoneal, after the first 8 h): no significant changes
absolute (g) or relative (%) weight of all organs vs placebo (mice (male and female); after 14 days): no significant differences
histopathological analyzes (mice (male and female); day 15): no significant changes
macroscopic examination of vital organs (mice (male and female); day 15): did not disclose any abnormalities
deaths (LD50 not set forth) (mice (male and female); doses up to 2000 mg/kg orally or intraperitoneally, 14 days): no deaths were observed
frequency of reversible mutants with the increase in concentration [1]: no increase
mutagenicity ratios (MR) [1]: less than 2
frequency of reversible mutants with the increase in concentration [2]: no increase
mutagenicity ratios (MR) [2]: less than 2
latency time to find the platform (memory deficit) [3]: prevented this deficit

— patent US11389423B2, “Pharmaceutical composition, excipient for the composition and use of the composition” (priority 2018, dated 2022)
